Structures can show the parent of a compound that is named as a salt.
Tests used:
[1] = biological target: T1, human JAK3 kinase domain (JH1) (Homo sapiens, UniProt P52333); assay: JH1 biochemical assay for JAK3 (ADP-Glo kinase assay, recombinant JH1 catalytic domain, JAK3-974 peptide, 4 μM ATP); conditions: JH1 kinase domain, ADP-Glo
T1 construct: recombinantly generated catalytic kinase (also known as JH1) domain of human JAK1, JAK2, JAK3 and TYK2
In short: (§1)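 Luminescent ADP read-out after residual ATP depletion, 100 min reaction. Kinase domain concentrations were 4 nM (JAK1), 0.2 nM (JAK2), 0.3 nM (JAK3) and 2 nM (TYK2), each with 50 μM peptide. IC50 values came from 4-parameter logistic fits over 11 points, 3-fold steps, top 10 μM or 1 μM.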

[2] = biological target: T2, human JAK1 kinase domain (JH1) (Homo sapiens, UniProt P23458); assay: JH1 biochemical assay for JAK1 (ADP-Glo kinase assay, recombinant JH1 catalytic domain, JAK3-342 peptide, 35 μM ATP); conditions: JH1 kinase domain, ADP-Glo
T2 construct: recombinantly generated catalytic kinase (also known as JH1) domain of human JAK1, JAK2, JAK3 and TYK2
T2 sequence (P23458 875-1153 limits assumed): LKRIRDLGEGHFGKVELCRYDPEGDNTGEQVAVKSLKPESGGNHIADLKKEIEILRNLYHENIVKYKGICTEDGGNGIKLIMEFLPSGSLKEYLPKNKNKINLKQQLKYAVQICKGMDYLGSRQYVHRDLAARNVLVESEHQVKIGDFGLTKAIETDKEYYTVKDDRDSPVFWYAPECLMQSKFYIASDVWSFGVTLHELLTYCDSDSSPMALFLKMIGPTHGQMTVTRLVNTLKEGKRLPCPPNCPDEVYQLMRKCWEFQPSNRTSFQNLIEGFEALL
In short: as §1

[3] = biological target: T3, human JAK2 kinase domain (JH1) (Homo sapiens, UniProt O60674); assay: JH1 biochemical assay for JAK2 (ADP-Glo kinase assay, recombinant JH1 catalytic domain, JAK3-974 peptide, 15 μM ATP); conditions: JH1 kinase domain, ADP-Glo
T3 construct: recombinantly generated catalytic kinase (also known as JH1) domain of human JAK1, JAK2, JAK3 and TYK2
T3 sequence (O60674 849-1124 limits assumed): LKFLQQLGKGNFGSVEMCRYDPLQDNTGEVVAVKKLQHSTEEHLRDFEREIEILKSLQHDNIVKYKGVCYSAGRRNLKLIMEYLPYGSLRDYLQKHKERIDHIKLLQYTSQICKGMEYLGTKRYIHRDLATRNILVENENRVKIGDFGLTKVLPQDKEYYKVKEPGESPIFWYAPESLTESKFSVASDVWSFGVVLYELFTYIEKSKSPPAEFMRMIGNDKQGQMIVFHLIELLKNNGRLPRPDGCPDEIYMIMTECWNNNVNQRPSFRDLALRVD
In short: as §1

[4] = biological target: JAK2 kinase activity on STAT5 in TF1 cells (Homo sapiens, UniProt O60674); assay: pSTAT5 cell assay (MSD; TF1 cells, 30 ng/mL IL-3 stimulation); type: cell-based; conditions: 30 ng/mL IL-3, 15 minutes
Chain of JAK2 kinase activity on STAT5 in TF1 cells (O60674 whole entry): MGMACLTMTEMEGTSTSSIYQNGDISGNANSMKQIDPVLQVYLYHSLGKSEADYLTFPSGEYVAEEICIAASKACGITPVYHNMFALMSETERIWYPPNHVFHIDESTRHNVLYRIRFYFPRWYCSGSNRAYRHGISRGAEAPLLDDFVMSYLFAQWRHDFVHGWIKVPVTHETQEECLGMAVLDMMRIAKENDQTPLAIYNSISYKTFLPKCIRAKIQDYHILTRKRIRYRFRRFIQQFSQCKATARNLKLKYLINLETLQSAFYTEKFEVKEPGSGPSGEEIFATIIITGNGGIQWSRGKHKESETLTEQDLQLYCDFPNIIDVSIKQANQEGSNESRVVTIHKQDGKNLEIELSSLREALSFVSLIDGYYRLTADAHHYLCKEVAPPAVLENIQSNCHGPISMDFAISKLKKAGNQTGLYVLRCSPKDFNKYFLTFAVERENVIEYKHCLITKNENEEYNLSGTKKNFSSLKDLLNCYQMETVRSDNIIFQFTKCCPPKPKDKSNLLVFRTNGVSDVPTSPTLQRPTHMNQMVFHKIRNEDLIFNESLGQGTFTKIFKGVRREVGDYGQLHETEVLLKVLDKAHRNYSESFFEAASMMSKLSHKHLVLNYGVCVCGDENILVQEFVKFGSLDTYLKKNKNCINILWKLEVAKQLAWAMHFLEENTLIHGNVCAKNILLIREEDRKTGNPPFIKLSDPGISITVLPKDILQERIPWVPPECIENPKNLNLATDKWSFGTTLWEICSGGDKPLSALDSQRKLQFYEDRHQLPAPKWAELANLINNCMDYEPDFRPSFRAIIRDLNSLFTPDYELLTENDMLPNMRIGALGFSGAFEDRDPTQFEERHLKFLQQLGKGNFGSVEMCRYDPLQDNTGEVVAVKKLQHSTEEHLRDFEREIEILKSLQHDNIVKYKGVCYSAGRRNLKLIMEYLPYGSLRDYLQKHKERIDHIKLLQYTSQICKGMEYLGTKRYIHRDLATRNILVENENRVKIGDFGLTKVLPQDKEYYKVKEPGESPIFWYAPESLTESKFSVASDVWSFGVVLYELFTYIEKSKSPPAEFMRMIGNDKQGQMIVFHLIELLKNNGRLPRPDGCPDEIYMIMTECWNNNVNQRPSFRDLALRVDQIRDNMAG
In short: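 Serum-starved TF1 cells with native JAK2/STAT5 were pretreated 1 h with compound (10-point four-fold dilutions from 10 μM), then stimulated 15 min with 30 ng/mL IL-3. pSTAT5 in lysates quantified by MSD immunoassay; normalized percent activity fitted to a 4-parameter logistic curve for IC50.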

[5] = biological target: T4, human TYK2 kinase domain (JH1) (Homo sapiens, UniProt P29597); assay: JH1 biochemical assay for TYK2 (ADP-Glo kinase assay, recombinant JH1 catalytic domain, JAK3-974 peptide, 10 μM ATP); conditions: JH1 kinase domain, ADP-Glo
T4 construct: recombinantly generated catalytic kinase (also known as JH1) domain of human JAK1, JAK2, JAK3 and TYK2
T4 sequence (P29597 897-1176 limits assumed): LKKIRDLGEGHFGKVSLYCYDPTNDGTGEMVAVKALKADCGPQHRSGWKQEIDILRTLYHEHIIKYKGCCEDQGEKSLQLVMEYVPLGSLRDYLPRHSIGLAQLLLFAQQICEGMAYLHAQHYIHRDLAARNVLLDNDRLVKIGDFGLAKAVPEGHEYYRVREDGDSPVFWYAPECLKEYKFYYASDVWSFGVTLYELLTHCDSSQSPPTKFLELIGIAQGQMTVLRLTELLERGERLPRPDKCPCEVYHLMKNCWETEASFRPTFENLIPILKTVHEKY
In short: as §1

[6] = biological target: JAK1 kinase activity on STAT3 in TF1 cells (Homo sapiens, UniProt P23458); assay: pSTAT3 cell assay (MSD; TF1 cells, 30 ng/mL IL-6 stimulation); type: cell-based; conditions: 30 ng/mL IL-6, 15 minutes
Chain of JAK1 kinase activity on STAT3 in TF1 cells (P23458 whole entry): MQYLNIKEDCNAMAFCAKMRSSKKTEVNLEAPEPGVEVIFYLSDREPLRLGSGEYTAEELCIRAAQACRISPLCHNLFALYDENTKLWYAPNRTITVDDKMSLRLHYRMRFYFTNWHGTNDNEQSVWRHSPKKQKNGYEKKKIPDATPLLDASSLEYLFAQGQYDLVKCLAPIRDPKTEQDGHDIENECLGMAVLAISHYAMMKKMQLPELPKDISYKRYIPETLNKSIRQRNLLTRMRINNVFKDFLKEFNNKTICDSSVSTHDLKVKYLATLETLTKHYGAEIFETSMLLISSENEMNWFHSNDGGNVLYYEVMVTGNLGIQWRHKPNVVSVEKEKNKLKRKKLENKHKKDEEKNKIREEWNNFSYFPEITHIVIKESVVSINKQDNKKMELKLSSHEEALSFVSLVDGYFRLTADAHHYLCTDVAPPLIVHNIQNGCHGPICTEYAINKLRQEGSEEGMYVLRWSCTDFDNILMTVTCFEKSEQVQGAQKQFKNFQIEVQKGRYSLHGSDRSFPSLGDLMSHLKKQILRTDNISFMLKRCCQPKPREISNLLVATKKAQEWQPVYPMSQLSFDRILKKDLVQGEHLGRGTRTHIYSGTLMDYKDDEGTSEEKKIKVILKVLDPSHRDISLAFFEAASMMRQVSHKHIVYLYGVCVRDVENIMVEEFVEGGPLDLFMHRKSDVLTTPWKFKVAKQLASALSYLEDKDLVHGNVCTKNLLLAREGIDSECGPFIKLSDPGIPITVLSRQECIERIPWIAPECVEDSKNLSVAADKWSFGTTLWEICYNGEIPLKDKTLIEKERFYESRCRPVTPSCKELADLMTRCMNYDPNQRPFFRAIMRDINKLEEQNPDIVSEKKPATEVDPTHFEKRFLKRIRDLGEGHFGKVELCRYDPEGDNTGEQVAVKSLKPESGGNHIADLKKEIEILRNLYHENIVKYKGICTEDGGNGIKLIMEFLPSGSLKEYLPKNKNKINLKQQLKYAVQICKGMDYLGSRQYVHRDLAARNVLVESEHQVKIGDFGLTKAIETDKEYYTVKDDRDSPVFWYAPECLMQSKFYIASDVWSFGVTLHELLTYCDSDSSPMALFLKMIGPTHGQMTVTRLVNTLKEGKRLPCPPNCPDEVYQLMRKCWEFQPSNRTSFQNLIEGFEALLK
In short: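 Readout is pSTAT3 in lysates, quantified on an MSD plate assay using anti-STAT3 antibodies. Before lysis, TF1 cells had been serum-starved, exposed to compound for 1 hour across ten four-fold dilutions starting at 10 μM, and given IL-6 for 15 minutes.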

[7] = biological target: Tyk2 kinase activity on STAT4 in NK92 cells (Homo sapiens, UniProt P29597); assay: pSTAT4 cell assay (MSD; NK92 cells, 30 ng/mL IL2 stimulation); type: cell-based; conditions: 30 ng/mL IL2, 15 minutes
Chain of Tyk2 kinase activity on STAT4 in NK92 cells (P29597 whole entry): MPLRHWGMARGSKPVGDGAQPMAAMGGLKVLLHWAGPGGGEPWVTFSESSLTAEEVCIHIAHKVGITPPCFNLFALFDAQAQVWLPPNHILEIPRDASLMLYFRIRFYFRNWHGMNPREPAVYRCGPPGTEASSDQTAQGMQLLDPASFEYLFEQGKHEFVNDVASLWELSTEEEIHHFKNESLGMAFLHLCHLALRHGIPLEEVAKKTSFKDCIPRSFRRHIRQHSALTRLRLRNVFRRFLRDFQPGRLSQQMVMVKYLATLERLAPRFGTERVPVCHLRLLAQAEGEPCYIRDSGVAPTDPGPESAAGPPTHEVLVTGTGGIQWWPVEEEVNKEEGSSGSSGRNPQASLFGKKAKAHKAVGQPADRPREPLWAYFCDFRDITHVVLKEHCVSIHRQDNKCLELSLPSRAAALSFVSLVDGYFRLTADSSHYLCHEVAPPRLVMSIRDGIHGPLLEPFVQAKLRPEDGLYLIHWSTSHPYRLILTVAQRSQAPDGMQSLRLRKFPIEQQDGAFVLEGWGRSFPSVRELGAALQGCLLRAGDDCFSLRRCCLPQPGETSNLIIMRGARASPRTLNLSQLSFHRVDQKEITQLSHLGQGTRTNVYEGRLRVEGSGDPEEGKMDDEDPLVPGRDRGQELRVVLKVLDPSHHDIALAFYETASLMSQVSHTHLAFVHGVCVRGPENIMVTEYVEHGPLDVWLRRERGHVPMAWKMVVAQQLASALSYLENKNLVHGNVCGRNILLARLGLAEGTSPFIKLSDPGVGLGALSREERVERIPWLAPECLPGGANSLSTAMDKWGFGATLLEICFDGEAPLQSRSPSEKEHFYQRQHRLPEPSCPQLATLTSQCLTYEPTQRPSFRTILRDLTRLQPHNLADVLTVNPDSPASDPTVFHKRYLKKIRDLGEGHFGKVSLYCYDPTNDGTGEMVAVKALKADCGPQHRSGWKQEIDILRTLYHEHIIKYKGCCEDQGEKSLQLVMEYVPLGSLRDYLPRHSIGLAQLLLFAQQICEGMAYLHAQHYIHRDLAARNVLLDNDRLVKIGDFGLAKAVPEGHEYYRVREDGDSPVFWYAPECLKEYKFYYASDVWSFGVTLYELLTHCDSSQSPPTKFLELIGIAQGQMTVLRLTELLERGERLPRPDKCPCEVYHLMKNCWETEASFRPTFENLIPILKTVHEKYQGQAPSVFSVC
In short: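 NK92, serum-starved; cpd 1 hr, 10-pt 4-fold from 10 μM; IL2 30 ng/mL 15 min; lyse; MSD with anti-STAT4 Abs; IC50 by 4-PL fit.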

T1 sequence (P52333 822-1111 limits assumed): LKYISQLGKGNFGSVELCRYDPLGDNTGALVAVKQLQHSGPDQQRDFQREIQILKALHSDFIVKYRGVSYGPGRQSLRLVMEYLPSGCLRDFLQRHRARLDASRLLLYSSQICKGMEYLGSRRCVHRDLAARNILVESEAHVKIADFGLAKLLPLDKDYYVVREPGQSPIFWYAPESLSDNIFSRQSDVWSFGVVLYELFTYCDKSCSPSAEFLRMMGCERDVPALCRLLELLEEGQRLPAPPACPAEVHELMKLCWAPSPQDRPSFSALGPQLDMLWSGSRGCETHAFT

| Structure (SMILES) | IC50 [1] [nM] | IC50 [2] [nM] | IC50 [3] [nM] | IC50 [4] [nM] | IC50 [5] [nM] | IC50 [6] [nM] | IC50 [7] [nM] |
| --- | --- | --- | --- | --- | --- | --- | --- |
| CCc1ccc(-c2cc3c(N4C[C@@H](C)[C@@](C#N)(C5CC5)C4=O)ccnn3c2)cn1 [Example 174, (3R,4S)-3-cyclopropyl-1-(6-(6-ethylpyridin-3-yl)pyrrolo[1,2-b]pyridazin-4-yl)-4-methyl-2-oxopyrrolidine-3-carbonitrile trifluoroacetate] | 100 to 1000 | 100 to 1000 | 100 to 1000 | 5000 to 10000 | 5 to 20 | 1000 to 5000 | 50 to 100 |
| C[C@@H]1CN(c2ccnn3cc(-c4ccc(OC(F)F)nc4)cc23)C(=O)[C@]1(C#N)C1CC1 [Example 176, (3R,4S)-3-cyclopropyl-1-(6-(6-(difluoromethoxy)pyridin-3-yl)pyrrolo[1,2-b]pyridazin-4-yl)-4-methyl-2-oxopyrrolidine-3-carbonitrile] | 100 to 1000 | 100 to 1000 | 1000 to 5000 | > 10000 | 5 to 20 | 5000 to 10000 | > 100 |
| C[C@@H]1CN(c2ncnn3cc(-c4cnn(C)c4)cc23)C(=O)[C@]1(C#N)C1CC1 [Example 180, (3R,4S)-3-cyclopropyl-4-methyl-1-(6-(1-methyl-1H-pyrazol-4-yl)pyrrolo[2,1-f][1,2,4]triazin-4-yl)-2-oxopyrrolidine-3-carbonitrile] | > 10000 | > 10000 | 5000 to 10000 | 5000 to 10000 | > 100 | 1000 to 5000 | > 100 |
| C[C@@H]1CN(c2ccnc3[nH]c(-c4cnn(C)c4)nc23)C(=O)[C@]1(C#N)C1CC1 [Example 181, (3R,4S)-3-cyclopropyl-4-methyl-1-(2-(1-methyl-1H-pyrazol-4-yl)-3H-imidazo[4,5-b]pyridin-7-yl)-2-oxopyrrolidine-3-carbonitrile] | 100 to 1000 | 100 to 1000 | 100 to 1000 | 5000 to 10000 | 5 to 20 | 1000 to 5000 | > 100 |
| C[C@@H]1CN(c2ccnn3cc(-c4cnn(C)c4)nc23)C(=O)[C@]1(C#N)C1CC1 [Example 182, (3R,4S)-3-cyclopropyl-4-methyl-1-(2-(1-methyl-1H-pyrazol-4-yl)imidazo[1,2-b]pyridazin-8-yl)-2-oxopyrrolidine-3-carbonitrile] | 100 to 1000 | 100 to 1000 | 100 to 1000 | > 10000 | 20 to 50 | 5000 to 10000 | > 100 |
| Cc1cnn2cc(-c3cnn(C)c3)nc(N3C[C@@H](C)[C@@](C#N)(C4CC4)C3=O)c12 [Example 186, (3R,4S)-3-cyclopropyl-4-methyl-1-(3-methyl-6-(1-methyl-1H-pyrazol-4-yl)pyrazolo[1,5-a]pyrazin-4-yl)-2-oxopyrrolidine-3-carbonitrile] | 100 to 1000 | 1000 to 5000 | 1000 to 5000 | > 10000 | 50 to 100 | > 10000 | > 100 |

Other lines, results leading:

| IC50 [1] [nM] | IC50 [2] [nM] | IC50 [3] [nM] | IC50 [4] [nM] | IC50 [5] [nM] | IC50 [6] [nM] | IC50 [7] [nM] | Structure (SMILES) |
| --- | --- | --- | --- | --- | --- | --- | --- |
| < 100 | < 100 | < 100 | 1000 to 5000 | < 5 | 100 to 1000 | 20 to 50 | CC(C)n1cc(-c2cc3c(N4C[C@@H](C)[C@@](C#N)(C5CC5)C4=O)ccnn3c2)cn1 [Example 167, (3R,4S)-3-cyclopropyl-1-(6-(1-isopropyl-1H-pyrazol-4-yl)pyrrolo[1,2-b]pyridazin-4-yl)-4-methyl-2-oxopyrrolidine-3-carbonitrile] |
| < 100 | < 100 | < 100 | 1000 to 5000 | < 5 | 1000 to 5000 | 50 to 100 | C[C@@H]1CN(c2ccnn3cc(-c4cnn(CC#N)c4)cc23)C(=O)[C@]1(C#N)C1CC1 [Example 168, (3R,4S)-1-(6-(1-(cyanomethyl)-1H-pyrazol-4-yl)pyrrolo[1,2-b]pyridazin-4-yl)-3-cyclopropyl-4-methyl-2-oxopyrrolidine-3-carbonitrile] |
| < 100 | < 100 | < 100 | 1000 to 5000 | < 5 | 1000 to 5000 | > 100 | C[C@@H]1CN(c2ccnn3cc(-c4cnn(C5CCCCC5)c4)cc23)C(=O)[C@]1(C#N)C1CC1 [Example 169, (3R,4S)-1-(6-(1-cyclohexyl-1H-pyrazol-4-yl)pyrrolo[1,2-b]pyridazin-4-yl)-3-cyclopropyl-4-methyl-2-oxopyrrolidine-3-carbonitrile] |
| < 100 | < 100 | < 100 | 5000 to 10000 | < 5 | 5000 to 10000 | > 100 | C[C@@H]1CN(c2ccnn3cc(-c4cnn(C5CCCC5)c4)cc23)C(=O)[C@]1(C#N)C1CC1 [Example 170, (3R,4S)-1-(6-(1-cyclopentyl-1H-pyrazol-4-yl)pyrrolo[1,2-b]pyridazin-4-yl)-3-cyclopropyl-4-methyl-2-oxopyrrolidine-3-carbonitrile] |
| 100 to 1000 | 100 to 1000 | 100 to 1000 | > 10000 | 5 to 20 | 5000 to 10000 | > 100 | C[C@@H]1CN(c2ccnn3cc(-c4cnn5c4CCC5)cc23)C(=O)[C@]1(C#N)C1CC1 [Example 171, (3R,4S)-3-cyclopropyl-1-(6-(5,6-dihydro-4H-pyrrolo[1,2-b]pyrazol-3-yl)pyrrolo[1,2-b]pyridazin-4-yl)-4-methyl-2-oxopyrrolidine-3-carbonitrile] |
| 100 to 1000 | 100 to 1000 | 100 to 1000 | 5000 to 10000 | < 5 | 1000 to 5000 | > 100 | CCOCCn1cc(-c2cc3c(N4C[C@@H](C)[C@@](C#N)(C5CC5)C4=O)ccnn3c2)cn1 [Example 172, (3R,4S)-3-cyclopropyl-1-(6-(1-(2-ethoxyethyl)-1H-pyrazol-4-yl)pyrrolo[1,2-b]pyridazin-4-yl)-4-methyl-2-oxopyrrolidine-3-carbonitrile] |
| < 100 | < 100 | < 100 | 100 to 1000 | < 5 | 100 to 1000 | 20 to 50 | C[C@@H]1CN(c2nc(-c3cnn(C)c3)cn3nccc23)C(=O)[C@]1(C#N)C1CC1 [Example 184, (3R,4S)-3-cyclopropyl-4-methyl-1-(6-(1-methyl-1H-pyrazol-4-yl)pyrazolo[1,5-a]pyrazin-4-yl)-2-oxopyrrolidine-3-carbonitrile] |
| < 100 | < 100 | < 100 | 100 to 1000 | < 5 | 100 to 1000 | 20 to 50 | C[C@@H]1CN(c2nc(-c3cnn(C(F)F)c3)cn3nccc23)C(=O)[C@]1(C#N)C1CC1 [Example 185, (3R,4S)-3-cyclopropyl-1-(6-(1-(difluoromethyl)-1H-pyrazol-4-yl)pyrazolo[1,5-a]pyrazin-4-yl)-4-methyl-2-oxopyrrolidine-3-carbonitrile] |
| < 100 | < 100 | 100 to 1000 | 1000 to 5000 | < 5 | 1000 to 5000 | 50 to 100 | C[C@@H]1CN(c2nc(-c3cnn(C)c3)cn3ncc(F)c23)C(=O)[C@]1(C#N)C1CC1 [Example 187, (3R,4S)-3-cyclopropyl-1-(3-fluoro-6-(1-methyl-1H-pyrazol-4-yl)pyrazolo[1,5-a]pyrazin-4-yl)-4-methyl-2-oxopyrrolidine-3-carbonitrile] |
| < 100 | < 100 | < 100 | 1000 to 5000 | < 5 | 100 to 1000 | 20 to 50 | CCn1cc(-c2cn3ncc(F)c3c(N3C[C@@H](C)[C@@](C#N)(C4CC4)C3=O)n2)cn1 [Example 188, (3R,4S)-3-cyclopropyl-1-(6-(1-ethyl-1H-pyrazol-4-yl)-3-fluoropyrazolo[1,5-a]pyrazin-4-yl)-4-methyl-2-oxopyrrolidine-3-carbonitrile] |

Reference: US20260297085A1, “1 H-PYRROLO[2,3-B]PYRIDIN-4-YL]-2-OXOPYRROLIDINE-3-CARBONITRILE DERIVATIVES AS TYROSINE KINASE 2 (TYK2) INHIBITORS FOR THE TREATMENT OF INFLAMMATORY DISEASES” (BIOGEN MA INC., priority 2023, published 2026)
